This is an account of results in PubChem BioAssay (NCI).

Holding throughout (experiment): NCI anticancer screen, dose series, 48 h
In assay [1] the test system is SF-539 CNS.
The subject of assay [2] is NCI-H23 lung.
Assay [3] has as its system NCI-H460 lung.
The test system of assay [4] is HOP-92 NSCLC.
For assay [5], the system named is NCI-H226 lung.
Assay [6] has as its system SW-620 colon.
The subject of assay [7] is RXF 393 renal.
For assay [8], the system named is UACC-257 melanoma.
The test system of assay [9] is MALME-3M melanoma.
Assay [10] relates to LOX IMVI melanoma.

The structures appear in SMILES notation.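 Method: 48-hour compound exposure of cells in 96-well plates, five concentrations, linear interpolation of endpoints. Abbreviation: GI50, concentration required for 50% inhibition of growth. At the TGI there is no net growth.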

As to `OCC(CCc1c[nH]c2ccccc12)c1c[nH]c2ccccc12` (stereo not given), the TGI in [1] is 33.6 µM; in [2], 30 µM; in assay [3], 28 µM; in [4], 32.7 µM; in [5], 36.7 µM; in [6], 29.4 µM. Also, the TGI is 30.8 µM in [7], 24.7 µM in assay [8], 32.2 µM in assay [9] and 27.3 µM in assay [10].

Regarding `C=C1C(OC/C=C/COC2O[C@@H]3O[C@@]4(C)CC[C@H]5[C@H](C)CC[C@@H](C2=C)[C@@]35OO4)O[C@@H]2O[C@@]3(C)CC[C@H]4[C@H](C)CC[C@@H]1[C@@]24OO3` (stereo not given in full), the GI50 in assay [1] was 10 µM; in assay [2] it was 0.0708 µM; in assay [3] it was 5.18 µM; in [4], 1140 nM; in [5], 4.32 µM; in assay [6], 0.0863 µM. Besides, the GI50 is 0.166 µM in assay [7], 4.96 µM in assay [8], 301 nM in assay [9] and 0.14 µM in [10]. Also, the TGI worked out at 25.2 µM in assay [1]; 14.2 µM in [2]; 27.2 µM in assay [3]; 36.3 µM in assay [4]; 33.5 µM in assay [5]; 23.6 µM in [6]. Moreover, the TGI in assay [7] worked out at 5.93 µM; in assay [8], 36 µM; in assay [9] it was 18.4 µM; in assay [10], 2.09 µM.

For `C=C(CNC(=O)c1ccccc1)c1ccc(C(=O)Nc2ccccc2N)cc1`, the GI50 in assay [1] is 1.38 µM; in [2], 18.7 µM; in assay [3], 8.02 µM; in [4], 1150 nM; in assay [5] it was 1.39 µM; in assay [6] it was 3.62 µM. Further, the GI50 in assay [7] was 3.08 µM; in assay [8] it was 3.62 µM; in [9], 2000 nM; in [10] it was 6.1 µM. Besides, the TGI is over 100 µM in assay [1]; over 100 µM in assay [2]; over 100 µM in [3]; over 100 µM in assay [4]; 7.41 µM in [5]; over 100 µM in [6]. For the same compound, the TGI in assay [7] was over 100 µM; in assay [8], 23.6 µM; in assay [9], over 100 µM; in assay [10], 73.2 µM.

In the case of `Cc1cnccc1N=Nc1ccc(N(C)C)cc1`, the TGI in [1] is 69.2 µM; in assay [2], 68.6 µM; in assay [3], over 100 µM; in [4], 36.1 µM; in assay [5] it was 29.1 µM; in assay [6] it was over 100 µM. The TGI in [7] was 53 µM; in [8], 53.5 µM; in assay [9], over 100 µM; in assay [10] it was 53.9 µM.

Regarding `CCN(CC)CCn1c2ccc(OC)cc2c2sc3cc(OC)ccc3c(=O)c21`, the GI50 in assay [1] is 1.66 µM; in assay [2], 1.9 µM; in assay [3] it was 1.08 µM; in [4] it was 1130 nM; in assay [5] it was 2.46 µM; in [6] it was 0.825 µM. The GI50 in assay [7] is 1.4 µM; in assay [8] it was 1.92 µM; in assay [9] it was 1590 nM; in assay [10], 1.3 µM. For the same compound, the TGI in assay [1] was found to be 3.05 µM; in [2], 4.34 µM; in assay [3], 2.52 µM; in [4], 2.75 µM; in [5] it was 7.49 µM; in [6], 2.41 µM. The TGI came to 2.79 µM in [7], 3.94 µM in assay [8], 3.18 µM in assay [9] and 2.74 µM in [10].

With `Nc1nccc2c1ncn2C1OC(CO)C(O)C1O` (stereo not given), the GI50 in [1] is over 100 µM; in [2], over 100 µM; in assay [3], 73.8 µM; in [4] it was 92200 nM; in assay [5], over 100 µM; in [6] it was 92.4 µM. Besides, the GI50 was 48.5 µM in assay [7], over 100 µM in assay [8], over 100000 nM in assay [9] and 94.1 µM in [10]. Also, the TGI in assay [1], in assay [2], in assay [3], in assay [4], in assay [5] and in [6] was over 100 µM in each case. Also, the TGI in [7], in assay [8], in assay [9] and in assay [10] was over 100 µM in each case.

Turning to `S=c1sc2cscc2s1`, the TGI in assay [1] worked out at 65.5 µM; in [2] it was 97.7 µM; in assay [3], 53.8 µM; in assay [4] it was 70.3 µM; in assay [5], 49.5 µM; in assay [6] it was 41.1 µM. The TGI in assay [7] was 51.5 µM; in assay [8], 44.7 µM; in [9], 30.6 µM; in assay [10], over 100 µM.

`O=c1oc2c3ccc4cnccc4c3[nH]c2c2ccccc12`: the GI50 in [1] was 11.5 µM; in assay [2] it was 23.3 µM; in [3], 9.35 µM; in assay [4] it was 10200 nM; in assay [5] it was 26.6 µM; in assay [6] it was 4.58 µM. Also, the GI50 in [7] was 5.72 µM; in assay [8] it was 20.3 µM; in assay [9], 18900 nM; in [10], 12.1 µM. In addition, the TGI in [1] turned out to be 25.2 µM; in assay [2], 80.1 µM; in assay [3] it was 30.2 µM; in [4], 35 µM; in assay [5], 72.6 µM; in assay [6], 23.5 µM. The TGI in [7] came to 19.4 µM; in [8], 57.6 µM; in assay [9] it was 45.1 µM; in [10], 28.2 µM.

Regarding `Clc1cc(-c2ccccc2)nc2ccccc12`, the TGI in assay [1] was over 100 µM; in [2], over 100 µM; in assay [3] it was over 100 µM; in [4] it was over 100 µM; in assay [5], 92.9 µM; in assay [6], over 100 µM. The TGI in assay [7], in assay [8], in assay [9] and in assay [10] was over 100 µM throughout.
